Experimental data: patent publication US11839679B2, “Gamma-diketones for treatment and prevention of aging skin and wrinkles” (BioSplice Therapeutics, Inc., priority 2014, dated 2023)

System: fine lines, wrinkles in the outer canthus of the eyes (crow's feet area)
Experiment: Panelist self-assessment questionnaire, Example 1
Format: in vivo, human
Settings: for Q2 appearance of my skin around either of my eyes, Average Score: Score 1 (Better) to 5 (Worse); for Q4 any discomfort, other than slight tingling, in the treated area during the study, Average Score: Score 1 (No) to 5 (Yes, everyday lasting more than an hour); for Q1 My wrinkles in the eye area have improved, Average Score: Score 1 (Strongly agree) to 5 (Strongly disagree); for Q3 how do you feel about the treated area surrounding your eyes and the appearance of wrinkles, Average Score: Score 1 (Very Satisfied) to 5 (Very Dissatisfied); for Q2 appearance of my skin around either of my eyes, % Responders Score 1: Score 1 = Better; for Q4 any discomfort, other than slight tingling, in the treated area during the study, % Responders Score 1: Score 1 = No; for Q1 My wrinkles in the eye area have improved, % Responders Score 1: Score 1 = Strongly agree; for Q3 how do you feel about the treated area surrounding your eyes and the appearance of wrinkles, % Responders Score 1: Score 1 = Very Satisfied; for Q1 My wrinkles in the eye area have improved, % Responders Score 2: Score 2 = Agree; for Q2 appearance of my skin around either of my eyes, % Responders Score 2: Score 2 = Little better; for Q3 how do you feel about the treated area surrounding your eyes and the appearance of wrinkles, % Responders Score 2: Score 2 = Satisfied; for Q4 any discomfort, other than slight tingling, in the treated area during the study, % Responders Score 2: Score 2 = Yes, occasional discomfort lasting less than an hour; for Q1 My wrinkles in the eye area have improved, % Responders Score 3: Score 3 = Neither agree or disagree
Description: Three groups of women were recruited to evaluate and compare the efficacy of three anti-aging test products (targeting the periorbital eye area) intended to reduce the appearance of fine lines, wrinkles in the outer canthus of the eyes (crow's feet area) over a 12 week period. Wrinkle assessment was conducted instrumentally using a Visioscan image analysis system. Effectiveness of the test product was evaluated using panelist self-assessment via questionnaire responses comprised of 3-4 questions (Q1, Q2, Q3 & Q4). Each stage in the progression of treatments was photographically documented using a High Resolution Scientifically Matched Photography technique. Image analysis was utilized to quantify changes in fine lines and crow's feet condition observed in the Scientifically Matched Photographs.
Subject Selection: • Number: Six subjects (two per group) to complete the study. • Sex: Females • Race: Caucasian/Asian/Hispanic • Age Range: 40 through 60 years old
Test samples: • Topical 0.15% of Compound #222 in Oil (a 50/50 mixture of • Propylene Glycol Dicaprylate/Dicaprate and Caprylic/Capric Triglyceride) (Cohort 1) • Topical 0.15% of Compound #222 in PEG400 (Cohort 2) • Topical 0.05% of Compound #222 in PEG400 (Cohort 3)
All subjects were instructed to use the test material once a day, as part of their daily skin care routine. Immediately following baseline evaluations, the subjects were issued the product with the following instructions:
GROUP 1—Compound #222 Topical 0.15% in oil (Cohort 1): The subjects were instructed to hold the bottle at an angle such that the roller-ball was at bottom and apply the roller-ball to the periorbital area, including the crow's feet area, 2-3 times, starting from the area under the eye (and above the cheekbone) and moving up towards the outer tip of the eye-brow. After 2-3 rolls, they were able to see wetness on the treated area. This procedure was repeated for the other eye.
GROUPS 2 & 3 Compound #222 Topical 0.15% in PEG (Cohort 2) & Compound #222 Topical 0.05% in PEG (Cohort 3): The subjects were instructed to hold the dispenser upright with one hand and with the tip of the index finger on the pump (similar to holding a spray container), pour a small amount of the product into the palm of their other hand by pumping once or twice. The product was then applied on to the periorbital area, including the crow's feet area, of both eyes with their index finger.
[…] After acclimating to ambient conditions, High Resolution Scientifically Matched Photographs were be taken and biophysical measurements (Surface Evaluation of Living Skin via Visioscan) were repeated using the standard template to identify test sites on the face. In addition (during the acclimation period) all participants were be asked to fill out a self-assessment questionnaire.
The source data was Visioscan and PhotoGrammetrix Image Analysis readings along with subjective assessments, which were totaled and reported as average scores. Photographs were placed side by side as to compare the photographs of before and after application of the test product in the eye area. Wrinkle reduction analysis source data consisted of crow's feet area quantification in relative units (px), collected at baseline and, the week 2, 4, 8 and 12 evaluations. The data obtained via Visioscan and from PhotoGrammetrix Image Analysis was quoted as % differences from baseline at each of the previously described time points. A paired t-test analysis was conducted in order to compare the results of post test product application measurements to baseline measurements where applicable. Statistical significance was established if p≤(α=0.05) was calculated.

[1] = Day 7, Topical 0.05% in PEG (Cohort 3)
[2] = Day 7, Topical 0.15% in Oil (Cohort 1)
[3] = Day 7, Topical 0.15% in PEG (Cohort 2)
[4] = Day 14, Topical 0.05% in PEG (Cohort 3)
[5] = Day 14, Topical 0.15% in Oil (Cohort 1)
[6] = Day 14, Topical 0.15% in PEG (Cohort 2)

SMILES: O=C(CCC(=O)c1ccc2c(c1)OCO2)c1ccccc1 [#222]
- Q2 appearance of my skin around either of my eyes, Average Score [1]: 1.50
- Q4 any discomfort, other than slight tingling, in the treated area during the study, Average Score [1]: 1.00
- Q1 My wrinkles in the eye area have improved, Average Score [1]: 2.00
- Q3 how do you feel about the treated area surrounding your eyes and the appearance of wrinkles, Average Score [1]: 2.00
- Q2 appearance of my skin around either of my eyes, Average Score [2]: 2.50
- Q4 any discomfort, other than slight tingling, in the treated area during the study, Average Score [2]: 1.50
- Q1 My wrinkles in the eye area have improved, Average Score [2]: 3.50
- Q3 how do you feel about the treated area surrounding your eyes and the appearance of wrinkles, Average Score [2]: 2.50
- Q2 appearance of my skin around either of my eyes, Average Score [3]: 2.50
- Q4 any discomfort, other than slight tingling, in the treated area during the study, Average Score [3]: 1.50
- Q1 My wrinkles in the eye area have improved, Average Score [3]: 3.50
- Q3 how do you feel about the treated area surrounding your eyes and the appearance of wrinkles, Average Score [3]: 2.50
- Q2 appearance of my skin around either of my eyes, Average Score [4]: 1.50
- Q4 any discomfort, other than slight tingling, in the treated area during the study, Average Score [4]: 1.00
- Q1 My wrinkles in the eye area have improved, Average Score [4]: 1.50
- Q3 how do you feel about the treated area surrounding your eyes and the appearance of wrinkles, Average Score [4]: 1.50
- Q2 appearance of my skin around either of my eyes, Average Score [5]: 2.50
- Q4 any discomfort, other than slight tingling, in the treated area during the study, Average Score [5]: 1.50
- Q1 My wrinkles in the eye area have improved, Average Score [5]: 3.00
- Q3 how do you feel about the treated area surrounding your eyes and the appearance of wrinkles, Average Score [5]: 2.00
- Q2 appearance of my skin around either of my eyes, Average Score [6]: 2.50
- Q4 any discomfort, other than slight tingling, in the treated area during the study, Average Score [6]: 2.50
- Q1 My wrinkles in the eye area have improved, Average Score [6]: 3.00
- Q3 how do you feel about the treated area surrounding your eyes and the appearance of wrinkles, Average Score [6]: 3.00
- Q2 appearance of my skin around either of my eyes, % Responders Score 1 [1]: 50%
- Q2 appearance of my skin around either of my eyes, % Responders Score 1 [2]: 0%
- Q2 appearance of my skin around either of my eyes, % Responders Score 1 [3]: 0%
- Q2 appearance of my skin around either of my eyes, % Responders Score 1 [4]: 50%
- Q2 appearance of my skin around either of my eyes, % Responders Score 1 [5]: 0%
- Q2 appearance of my skin around either of my eyes, % Responders Score 1 [6]: 0%
- Q4 any discomfort, other than slight tingling, in the treated area during the study, % Responders Score 1 [1]: 100%
- Q4 any discomfort, other than slight tingling, in the treated area during the study, % Responders Score 1 [2]: 50%
- Q4 any discomfort, other than slight tingling, in the treated area during the study, % Responders Score 1 [3]: 50%
- Q4 any discomfort, other than slight tingling, in the treated area during the study, % Responders Score 1 [4]: 100%
- Q4 any discomfort, other than slight tingling, in the treated area during the study, % Responders Score 1 [5]: 50%
- Q4 any discomfort, other than slight tingling, in the treated area during the study, % Responders Score 1 [6]: 50%
- Q1 My wrinkles in the eye area have improved, % Responders Score 1 [1]: 0%
- Q1 My wrinkles in the eye area have improved, % Responders Score 1 [2]: 0%
- Q1 My wrinkles in the eye area have improved, % Responders Score 1 [3]: 0%
- Q1 My wrinkles in the eye area have improved, % Responders Score 1 [4]: 50%
- Q1 My wrinkles in the eye area have improved, % Responders Score 1 [5]: 0%
- Q1 My wrinkles in the eye area have improved, % Responders Score 1 [6]: 0%
- Q3 how do you feel about the treated area surrounding your eyes and the appearance of wrinkles, % Responders Score 1 [1]: 50%
- Q3 how do you feel about the treated area surrounding your eyes and the appearance of wrinkles, % Responders Score 1 [2]: 0%
- Q3 how do you feel about the treated area surrounding your eyes and the appearance of wrinkles, % Responders Score 1 [3]: 0%
- Q3 how do you feel about the treated area surrounding your eyes and the appearance of wrinkles, % Responders Score 1 [4]: 50%
- Q3 how do you feel about the treated area surrounding your eyes and the appearance of wrinkles, % Responders Score 1 [5]: 50%
- Q3 how do you feel about the treated area surrounding your eyes and the appearance of wrinkles, % Responders Score 1 [6]: 0%
- Q1 My wrinkles in the eye area have improved, % Responders Score 2 [1]: 100%
- Q1 My wrinkles in the eye area have improved, % Responders Score 2 [2]: 50%
- Q1 My wrinkles in the eye area have improved, % Responders Score 2 [3]: 0%
- Q1 My wrinkles in the eye area have improved, % Responders Score 2 [4]: 50%
- Q1 My wrinkles in the eye area have improved, % Responders Score 2 [5]: 50%
- Q1 My wrinkles in the eye area have improved, % Responders Score 2 [6]: 50%
- Q2 appearance of my skin around either of my eyes, % Responders Score 2 [1]: 50%
- Q2 appearance of my skin around either of my eyes, % Responders Score 2 [2]: 50%
- Q2 appearance of my skin around either of my eyes, % Responders Score 2 [3]: 50%
- Q2 appearance of my skin around either of my eyes, % Responders Score 2 [4]: 50%
- Q2 appearance of my skin around either of my eyes, % Responders Score 2 [5]: 50%
- Q2 appearance of my skin around either of my eyes, % Responders Score 2 [6]: 50%
- Q3 how do you feel about the treated area surrounding your eyes and the appearance of wrinkles, % Responders Score 2 [1]: 0%
- Q3 how do you feel about the treated area surrounding your eyes and the appearance of wrinkles, % Responders Score 2 [2]: 50%
- Q3 how do you feel about the treated area surrounding your eyes and the appearance of wrinkles, % Responders Score 2 [3]: 50%
- Q3 how do you feel about the treated area surrounding your eyes and the appearance of wrinkles, % Responders Score 2 [4]: 50%
- Q3 how do you feel about the treated area surrounding your eyes and the appearance of wrinkles, % Responders Score 2 [5]: 0%
- Q3 how do you feel about the treated area surrounding your eyes and the appearance of wrinkles, % Responders Score 2 [6]: 50%
- Q4 any discomfort, other than slight tingling, in the treated area during the study, % Responders Score 2 [1]: 0%
- Q4 any discomfort, other than slight tingling, in the treated area during the study, % Responders Score 2 [2]: 50%
- Q4 any discomfort, other than slight tingling, in the treated area during the study, % Responders Score 2 [3]: 50%
- Q4 any discomfort, other than slight tingling, in the treated area during the study, % Responders Score 2 [4]: 0%
- Q4 any discomfort, other than slight tingling, in the treated area during the study, % Responders Score 2 [5]: 50%
- Q4 any discomfort, other than slight tingling, in the treated area during the study, % Responders Score 2 [6]: 0%
- Q1 My wrinkles in the eye area have improved, % Responders Score 3 [1]: 0%
- Q1 My wrinkles in the eye area have improved, % Responders Score 3 [2]: 0%
- Q1 My wrinkles in the eye area have improved, % Responders Score 3 [3]: 50%
- Q1 My wrinkles in the eye area have improved, % Responders Score 3 [4]: 0%
- Q1 My wrinkles in the eye area have improved, % Responders Score 3 [5]: 0%
- Q1 My wrinkles in the eye area have improved, % Responders Score 3 [6]: 0%
